Assay results: patent US20130244953A1, “DUAL SECURED THERAPEUTIC PEPTIDE DELIVERY SYSTEM” (priority 2011, published 2013)

Test system: rat red blood cells
Test: Hemolytic assay
Type: cell-based
Details: 1 μM melittin, 37° C., 1 hour, pH 7.4
Procedure: Hemolytic assay: Rat blood was used to compare hemolytic effects of free melittin, SSNS, and DSNS using DI water as positive control and PBS as negative control. Briefly, rat red blood cells were washed using 210 mM sodium chloride and dispersed in phosphate buffer saline (pH 7.4), To the SSNS, DSNS and free melittin corresponding to melittin concentration of 0.1 to 10 μM, the same amount of red blood cells was added and incubated at 37° C. for 1 hour. Following, each sample was centrifuged at 300 rcf for 2 min. and the optical density of supernatant was measured (λ=405 nm.) for the quantification of lysed cell amount. The results are shown graphically in FIG. 5 and in the corresponding photographs of FIG. 6.

## CC[C@H](C)[C@H](NC(=O)CN)C(=O)NCC(=O)N[C@@H](C)C(=O)N[C@H](C(=O)N[C@@H](CC(C)C)C(=O)N[C@@H](CCCCN)C(=O)N[C@H](C(=O)N[C@@H](CC(C)C)C(=O)N[C@H](C(=O)N[C@H](C(=O)NCC(=O)N[C@@H](CC(C)C)C(=O)N1CCC[C@H]1C(=O)N[C@@H](C)C(=O)N[C@@H](CC(C)C)C(=O)N[C@H](C(=O)N[C@@H](CO)C(=O)N[C@@H](Cc1c[nH]c2ccccc12)C(=O)N[C@H](C(=O)N[C@@H](CCCCN)C(=O)N[C@@H](CCCNC(=N)N)C(=O)N[C@@H](CCCCN)C(=O)N[C@@H](CCCNC(=N)N)C(=O)N[C@@H](CCC(N)=O)C(=O)N[C@@H](CCC(N)=O)C(N)=O)[C@@H](C)CC)[C@@H](C)CC)[C@@H](C)O)[C@@H](C)O)C(C)C)C(C)C [free melittin, melittin]
  red blood cell lysis: completely lysed the cells
